Assay results from US20260364080A1, “PYRAZOLO-PYRIMIDINONE COMPOUNDS FOR USE IN METHODS OF INHIBITING WEE1 A KINASE” (Acrivon Therapeutics, Inc., priority 2023, published 2026).

How the values were obtained:
[1] = biological target: T1, Wee1A kinase (CDK1 Tyr15 phosphorylation in ACHN renal cell carcinoma cells) (Homo sapiens, UniProt P30291); test: High-content imaging of pCdk1 Y15, Wee1A kinase target engagement in ACHN cells; assay type: cell-based; conditions: 4 h treatment, nuclear positivity for pCdk1 Y15 vs DMSO control, read-out: CDK1 Tyr15 Phosphorylation EC50
T1 construct: pCDK1 Tyr15 immunofluorescence read-out
T1 sequence (P30291 whole entry): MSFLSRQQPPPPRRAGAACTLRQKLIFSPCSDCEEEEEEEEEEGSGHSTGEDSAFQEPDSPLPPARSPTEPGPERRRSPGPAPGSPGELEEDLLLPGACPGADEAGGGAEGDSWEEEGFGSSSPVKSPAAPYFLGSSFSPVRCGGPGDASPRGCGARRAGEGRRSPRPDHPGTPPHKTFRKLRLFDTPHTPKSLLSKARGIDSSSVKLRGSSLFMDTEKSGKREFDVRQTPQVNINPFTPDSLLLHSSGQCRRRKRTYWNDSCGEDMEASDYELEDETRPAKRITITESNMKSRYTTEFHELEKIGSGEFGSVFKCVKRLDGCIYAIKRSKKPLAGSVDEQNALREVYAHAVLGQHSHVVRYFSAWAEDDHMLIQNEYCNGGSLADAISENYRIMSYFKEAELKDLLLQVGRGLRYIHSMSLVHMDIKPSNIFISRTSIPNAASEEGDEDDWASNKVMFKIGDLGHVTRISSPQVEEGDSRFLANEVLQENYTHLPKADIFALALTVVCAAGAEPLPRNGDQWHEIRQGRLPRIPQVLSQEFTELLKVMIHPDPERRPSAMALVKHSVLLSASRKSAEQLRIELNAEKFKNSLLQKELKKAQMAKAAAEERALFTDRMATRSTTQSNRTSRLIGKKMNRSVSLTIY
Experimental: Each of an ACHN renal cell carcinoma cell line (ATCC) and a DAOY medulloblastoma cell line, and an A427 lung cancer line were cultured in Minimum Essential Medium Eagle supplemented with 10% fetal calf serum (Sigma), 1% Penicillin-Streptomycin and 10 mM HEPES buffer (HyClone). Cell cultures were kept in a humidified incubator at 37 °C and 5% CO2. Cells were routinely tested for Mycoplasma contamination.
For target engagement assessment of Wee1A kinase inhibition, high-content imaging of ACHN renal cell carcinoma cells was used for quantification of CDK1 phosphorylated on tyrosine 15 by immunofluorescence (“IF”). 20,000 cells per well were seeded in tissue culture treated 96 well plates and treated with compounds at concentrations ranging from 7 to 5,000 nM or from 0.3 to 200 nM for 4h. Cells were fixated for 15 minutes in 4% paraformaldehyde solution, washed in PBS and permeabilized using 0.2% Triton X-100. Blocking was performed for 1 h at RT using Blocker FL Fluorescent Blocking Buffer (Thermo Scientific), thereafter cells were incubated with primary antibody (rabbit anti-pCDK1 Y^15, #4539, Cell Signaling Technology) at 4 °C ON. Alexa Fluor Plus 647 labelled goat anti-rabbit (A32733, Thermo Scientific) was used as secondary antibody. After washing in PBS, nuclei were stained with DAPI solution for 10 min at RT, protected from light. Cells were imaged using an ImageXpress Pico automated imaging system and CellReporter Xpress software (Molecular Devices). The percentage of cells with nuclear positivity for pCdk1 Y^15 compared to DMSO control was determined for each well and drug dose response curves and EC50 values were calculated and visualized using GraphPad Prism. Target engagement for Wee1A kinase can also be measured using the same AlphaLISA assay in OVCAR3 cells, an ovarian cancer cell line. NIH:OVCAR-3 (OVCAR3) cells are cultured in RPMI-1640 medium supplemented with 0.01 mg/ml insulin, 20% FBS, 1% Penicillin-Streptomycin and 10 mM HEPES buffer. 14,000 cells per well are seeded into 96 well tissue culture plates in full medium. Twenty-four hours post seeding, cells are treated with compound for 4 hours at concentrations ranging from 0.017 nM to 1000 nM.

[2] = biological target: T2, recombinant human Wee1A kinase (Homo sapiens, UniProt P30291); test: Wee1A kinase binding assay (LanthaScreen Eu time-resolved FRET); conditions: 30 nM tracer 178, 5 nM Wee1A kinase, 2 nM Eu-labeled antibody; 60 minutes at room temperature; read-out: Wee1A kinase Binding IC50
T2 construct: full length Wee1 kinase was expressed by baculovirus in insect cells; purchased Invitrogen PV3817; host or cells: insect cells (baculovirus)
T2 sequence (P30291 whole entry): as above
Experimental: This time resolved-FRET binding assay was performed in white 384-well low volume plates (Greiner, cat #784075), at room temperature in kinase buffer A (KBA; Invitrogen cat #PV3189), consisting of 50 mM HEPES-NaOH (pH 7.5), 0.01% Brij-35, 10 mM MgCl2, and 1 mM EGTA. 5 μL of compound (diluted in reaction buffer, to 1% DMSO) were added to various wells in the plate, followed by 5 μL each of recombinant human Wee1A kinase (full length Wee1 kinase was expressed by baculovirus in insect cells using a N-terminal GST tag (MW: 99.1 kDa) (Invitrogen cat #PV3817) and LanthaScreen Eu-anti-GST antibody (Invitrogen, cat #PV5594). After this, 5 μL of kinase tracer 178 (Invitrogen, cat #PV5593) was added to the plate and the plate was incubated for 60 minutes at room temperature. The final assay conditions in each well were: 30 nM tracer 178, 5 nM Wee1A kinase and 2 nM Eu-labeled antibody in total assay volume of 15 μL. An Envision 2104 (Perkin-Elmer) Plate Reader with the following time-resolve fluorescence setting was used for performing LanthaScreen kinase binding assay. • Excitation 320 nm (30 nm bandpass) • Kinase Tracer Emission 665 nm (10 nm bandpass) • LanthaScreen Eu-anti-Tag Antibody Emission 615 nm (10 nm bandpass) • Dichroic Mirror Instrument dependent • Delay Time 100 μs • Integration Time 200 μs
(§1) To calculate the emission ratio, the acceptor/tracer emission ([…]) was divided by the antibody/donor emission ([…]) and the average of duplicate measurement was used for calculations. Data plotting, analysis of binding, and curve fitting was done using Excel add-in XLfit version 5.5.0.5 (IDBS, Guildford, United Kingdom). […] “NT” means not tested.

[3] = biological target: T3, Myt1 kinase (recombinant PMYT-1) (Homo sapiens, UniProt Q99640); test: Myt1 kinase binding assay (LanthaScreen Eu Kinase Binding Assay); conditions: 3 nM tracer 178, 2.5 nM PMYT-1, 1 nM Eu-labeled antibody; read-out: Myt1 kinase Binding IC50
T3 construct: full length PMYT-1 was expressed by baculovirus in insect cells; purchased Invitrogen A30984; host or cells: insect cells (baculovirus)
T3 sequence (Q99640 1-499): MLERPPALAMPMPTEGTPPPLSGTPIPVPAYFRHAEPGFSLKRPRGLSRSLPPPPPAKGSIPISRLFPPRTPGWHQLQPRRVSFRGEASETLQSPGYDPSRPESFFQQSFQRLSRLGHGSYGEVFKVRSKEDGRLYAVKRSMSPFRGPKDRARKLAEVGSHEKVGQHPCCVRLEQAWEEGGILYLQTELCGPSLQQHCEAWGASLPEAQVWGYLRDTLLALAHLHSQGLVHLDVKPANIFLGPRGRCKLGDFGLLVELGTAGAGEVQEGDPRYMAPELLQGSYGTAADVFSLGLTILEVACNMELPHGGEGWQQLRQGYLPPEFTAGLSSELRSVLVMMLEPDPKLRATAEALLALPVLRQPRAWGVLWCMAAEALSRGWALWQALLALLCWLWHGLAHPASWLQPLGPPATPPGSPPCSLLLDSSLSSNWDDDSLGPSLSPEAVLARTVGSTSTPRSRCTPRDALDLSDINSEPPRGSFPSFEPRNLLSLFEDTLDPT
Experimental: as §1
We used a LanthaScreen Europium (Eu) Kinase Binding Assay to determine the binding affinities (IC50) of compounds to Myt1 kinase. […] “NT” designates that the compound was not tested in this assay.

SMILES	EC50 [1]	IC50 [2]	IC50 [3]
CCCn1c(=O)c2cnc(Nc3ccc4c(cnn4C)c3)nc2n1-c1cccc(OC2CCNCC2)n1 [Compound 110, 6-[(1-methyl-1H-indazol-5-yl)amino]-1-[6-(piperidin-4-yloxy)pyridin-2-yl]-2-propyl-1H,2H,3H-pyrazolo[3,4-d]pyrimidin-3-one]	100 to 500 nM	< 10 nM	20 to 100 nM
CCCn1c(=O)c2cnc(Nc3ccc4c(cnn4C)c3)nc2n1-c1cccc(OC2CCN(C)CC2)n1 [Compound 111, 6-[(1-methyl-1H-indazol-5-yl)amino]-1-{6-[(1-methylpiperidin-4-yl)oxy]pyridin-2-yl}-2-propyl-1H,2H,3H-pyrazolo[3,4-d]pyrimidin-3-one]	< 100 nM	< 10 nM	20 to 100 nM
C=CCn1c(=O)c2cnc(Nc3ccc4c(cnn4C)c3)nc2n1-c1cccc(N[C@@H]2CCN(C)C2)n1 [Compound 115]	< 100 nM	< 10 nM	20 to 100 nM
CCn1c(=O)c2cnc(Nc3ccccc3)nc2n1-c1cccc(OC2CCN(C)CC2)n1 [Compound 117, 6-anilino-2-ethyl-1-[6-(1-methyl-4-piperidyloxy)-2-pyridyl]-1,2-dihydro-3H-1,2,5,7-tetraazainden-3-one]	< 100 nM	< 10 nM	20 to 100 nM
C=CCn1c(=O)c2cnc(Nc3ccc4c(cnn4C)c3)nc2n1-c1cccc(N[C@@H]2CCN(C(C)C)C2)n1 [Compound 120, 6-[(1-methyl-1H-indazol-5-yl)amino]-2-(prop-2-en-1-yl)-1-(6-{[(3R)-1-(propan-2-yl)pyrrolidin-3-yl]amino}pyridin-2-yl)-1H,2H,3H-pyrazolo[3,4-d]pyrimidin-3-one]	< 100 nM	< 10 nM	100 to 500 nM
C=CCn1c(=O)c2cnc(Nc3ccc4c(cnn4C)c3)nc2n1-c1cccc(NC2CCNCC2)n1 [Compound 122, 6-[(1-methyl-1H-indazol-5-yl)amino]-1-{6-[(piperidin-4-yl)amino]pyridin-2-yl}-2-(prop-2-en-1-yl)-1H,2H,3H-pyrazolo[3,4-d]pyrimidin-3-one]	500 to 1000 nM	< 10 nM	100 to 500 nM
C=CCn1c(=O)c2cnc(Nc3ccccc3)nc2n1-c1cccc(NC2CCNCC2)n1 [Compound 123, 6-(phenylamino)-1-{6-[(piperidin-4-yl)amino]pyridin-2-yl}-2-(prop-2-en-1-yl)-1H,2H,3H-pyrazolo[3,4-d]pyrimidin-3-one]	500 to 1000 nM	< 10 nM	100 to 500 nM
C=CCn1c(=O)c2cnc(Nc3ccc(Cl)cc3)nc2n1-c1cccc(NC2CCNCC2)n1 [Compound 124, 2-allyl-6-((4-chlorophenyl)amino)-1-(6-(piperidin-4-ylamino)pyridin-2-yl)-1,2-dihydro-3H-pyrazolo[3,4-d]pyrimidin-3-one]	500 to 1000 nM	< 10 nM	20 to 100 nM
C=CCn1c(=O)c2cnc(Nc3ccc(F)cc3)nc2n1-c1cccc(NC2CCNCC2)n1 [Compound 125, 6-[(4-fluorophenyl)amino]-1-{6-[(piperidin-4-yl)amino]pyridin-2-yl}-2-(prop-2-en-1-yl)-1H,2H,3H-pyrazolo[3,4-d]pyrimidin-3-one]	500 to 1000 nM	< 10 nM	100 to 500 nM
C=CCn1c(=O)c2cnc(Nc3cccc(C)c3)nc2n1-c1cccc(NC2CCNCC2)n1 [Compound 126, 2-allyl-1-[6-(4-piperidylamino)-2-pyridyl]-6-m-toluidino-1,2-dihydro-3H-1,2,5,7-tetraazainden-3-one]	100 to 500 nM	< 10 nM	> 500 nM
C=CCn1c(=O)c2cnc(Nc3ccc(F)c(C)c3)nc2n1-c1cccc(NC2CCNCC2)n1 [Compound 128, 2-allyl-6-(4-fluoro-3-toluidino)-1-[6-(4-piperidylamino)-2-pyridyl]-1,2-dihydro-3H-1,2,5,7-tetraazainden-3-one]	100 to 500 nM	< 10 nM	100 to 500 nM
C=CCn1c(=O)c2cnc(Nc3ccc(OCC(F)(F)F)cc3)nc2n1-c1cccc(NC2CCNCC2)n1 [Compound 130, 2-allyl-1-[6-(4-piperidylamino)-2-pyridyl]-6-[p-(2,2,2-trifluoroethoxy)phenylamino]-1,2-dihydro-3H-1,2,5,7-tetraazainden-3-one]	500 to 1000 nM	< 10 nM	20 to 100 nM
C=CCn1c(=O)c2cnc(Nc3ccc(C(F)(F)F)cc3)nc2n1-c1cccc(NC2CCNCC2)n1 [Compound 131, 2-allyl-1-[6-(4-piperidylamino)-2-pyridyl]-6-[p-(trifluoromethyl)phenylamino]-1,2-dihydro-3H-1,2,5,7-tetraazainden-3-one]	500 to 1000 nM	< 10 nM	100 to 500 nM
CCn1c(=O)c2cnc(Nc3cnn(C)c3)nc2n1-c1cccc(OC2CCN(C)CC2)n1 [Compound 132, 2-ethyl-1-[6-(1-methyl-4-piperidyloxy)-2-pyridyl]-6-(1-methyl-4-pyrazolylamino)-1,2-dihydro-3H-1,2,5,7-tetraazainden-3-one]	100 to 500 nM	< 10 nM	100 to 500 nM
C=CCn1c(=O)c2cnc(Nc3ccc(Cl)c(C)c3)nc2n1-c1cccc(NC2CCNCC2)n1 [Compound 133, 2-allyl-6-(4-chloro-3-toluidino)-1-[6-(4-piperidylamino)-2-pyridyl]-1,2-dihydro-3H-1,2,5,7-tetraazainden-3-one]	100 to 500 nM	< 10 nM	100 to 500 nM
C=CCn1c(=O)c2cnc(Nc3ccc(C#N)c(C)c3)nc2n1-c1cccc(NC2CCNCC2)n1 [Compound 134, 2-methyl-4-[(3-oxo-1-{6-[(piperidin-4-yl)amino]pyridin-2-yl}-2-(prop-2-en-1-yl)-1H,2H,3H-pyrazolo[3,4-d]pyrimidin-6-yl)amino]benzonitrile]	> 1000 nM	< 10 nM	100 to 500 nM
